Measurements as given in ChEMBL document CHEMBL1132512, “Substituted heterocyclic analogs as selective COX-2 inhibitors in the flosulide class” (Bioorg Med Chem Lett, 1999).

What was measured:
[1] = molecular target: T1, Prostaglandin G/H synthase 2 (Homo sapiens, UniProt P35354); experiment: Inhibition of purified recombinant human Prostaglandin G/H synthase 2
T1 sequence (P35354 whole entry): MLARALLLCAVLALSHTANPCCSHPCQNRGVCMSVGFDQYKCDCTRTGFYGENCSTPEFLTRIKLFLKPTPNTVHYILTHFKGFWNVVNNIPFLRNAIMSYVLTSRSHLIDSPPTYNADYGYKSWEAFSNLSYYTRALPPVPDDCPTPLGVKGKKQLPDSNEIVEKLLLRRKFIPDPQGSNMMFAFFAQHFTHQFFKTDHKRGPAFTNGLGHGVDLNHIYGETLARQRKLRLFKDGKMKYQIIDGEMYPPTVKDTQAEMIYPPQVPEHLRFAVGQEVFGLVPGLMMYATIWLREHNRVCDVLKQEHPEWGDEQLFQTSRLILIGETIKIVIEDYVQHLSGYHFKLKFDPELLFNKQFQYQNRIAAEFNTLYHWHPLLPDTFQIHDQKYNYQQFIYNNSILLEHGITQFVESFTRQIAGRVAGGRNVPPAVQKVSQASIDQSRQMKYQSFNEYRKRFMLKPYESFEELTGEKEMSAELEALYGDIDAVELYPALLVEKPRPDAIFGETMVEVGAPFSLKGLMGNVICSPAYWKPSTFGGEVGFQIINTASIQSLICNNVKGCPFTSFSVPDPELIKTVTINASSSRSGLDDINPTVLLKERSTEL

[2] = molecular target: T1, Prostaglandin G/H synthase 2; experiment: Inhibition of human Prostaglandin G/H synthase 2 expressed in CHO (chinese hamster ovary) cells; format: cell-based
[3] = molecular target: T2, Prostaglandin G/H synthase 1 (Homo sapiens, UniProt P23219); experiment: Inhibition of Prostaglandin G/H synthase 1 activity in U937 microsomal assay; format: microsomes, Microsome
T2 sequence (P23219 whole entry): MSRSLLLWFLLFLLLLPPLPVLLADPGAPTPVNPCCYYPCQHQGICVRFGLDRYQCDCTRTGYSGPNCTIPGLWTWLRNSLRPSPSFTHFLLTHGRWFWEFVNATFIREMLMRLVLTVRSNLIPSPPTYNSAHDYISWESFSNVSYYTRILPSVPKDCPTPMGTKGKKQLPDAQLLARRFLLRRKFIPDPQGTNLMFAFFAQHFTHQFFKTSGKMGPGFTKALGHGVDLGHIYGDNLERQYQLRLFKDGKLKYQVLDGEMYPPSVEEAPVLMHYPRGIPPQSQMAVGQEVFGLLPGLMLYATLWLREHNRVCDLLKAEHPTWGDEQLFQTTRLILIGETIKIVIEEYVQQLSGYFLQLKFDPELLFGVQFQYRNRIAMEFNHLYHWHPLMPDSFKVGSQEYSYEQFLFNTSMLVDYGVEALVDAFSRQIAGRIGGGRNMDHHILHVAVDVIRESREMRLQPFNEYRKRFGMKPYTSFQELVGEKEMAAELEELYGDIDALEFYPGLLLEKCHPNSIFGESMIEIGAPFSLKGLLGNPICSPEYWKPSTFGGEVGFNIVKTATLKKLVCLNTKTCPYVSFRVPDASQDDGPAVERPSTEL

[4] = molecular target: T2, Prostaglandin G/H synthase 1; experiment: Inhibition of purified recombinant human Prostaglandin G/H synthase 1
Rattus norvegicus [5] = experiment: In vivo antiinflammatory activity expressed as 30% effective dose was evaluated in rat paw edema assay; format: functional
Rattus norvegicus [6] = experiment: In vivo antiinflammatory activity expressed as 50% effective dose was evaluated at 5 hr post dosing in rat pyresis model; format: functional
Rattus norvegicus [7] = experiment: In vivo antiinflammatory activity expressed as 50% effective dose was evaluated in rat paw edema assay; format: functional
Rattus norvegicus [8] = experiment: In vivo antiinflammatory activity expressed as percent inhibition after administration of 3 mg/kg was evaluated in rat paw edema assay; format: functional

Structure (SMILES)	IC50 [1] [nM]	IC50 [2] [nM]	IC50 [3] [nM]	IC50 [4] [nM]	ED30 (Rattus norvegicus [5]) [mg/kg]	ED50 (Rattus norvegicus [6]) [mg/kg]	ED50 (Rattus norvegicus [7]) [mg/kg]	inhibition in vivo at 3 mg/kg (Rattus norvegicus [8]) [%]
Cc1nc(Sc2cc3c(cc2NS(C)(=O)=O)CCC3=O)sc1C	1700	> 1800	> 100000	> 100000	–	–	–	–
Cc1cnc(Sc2cc3c(cc2NS(C)(=O)=O)CCC3=O)s1	1500	870	> 100000	> 100000	–	–	–	–
Cc1ccc(Sc2cc3c(cc2NS(C)(=O)=O)CCC3=O)nc1	1000	640	> 100000	> 100000	–	–	–	–
C=Cc1csc(Sc2cc3c(cc2NS(C)(=O)=O)COC3=O)n1	310	140	12000	> 100000	–	–	–	–
CS(=O)(=O)Nc1cc2c(cc1Sc1nccs1)C(=O)CC2	480	320	13000	> 100000	–	–	–	–
CCc1csc(Sc2cc3c(cc2NS(C)(=O)=O)COC3=O)n1	1000	13	6300	> 100000	0.16	2.7	0.93	65
CCc1csc(Sc2cc3c(cc2NS(C)(=O)=O)CCC3=O)n1	280	49	14000	~100000	0.3	8.1	–	43
CS(=O)(=O)Nc1cc2c(cc1Sc1ccccn1)C(=O)CC2	810	500	> 30000	> 100000	–	–	–	–
CSc1csc(Sc2cc3c(cc2NS(C)(=O)=O)COC3=O)n1	290	11000	9300	> 100000	–	–	–	–

Stronger by IC50 [3], values ahead:

IC50 [1] [nM]	IC50 [2] [nM]	IC50 [3] [nM]	IC50 [4] [nM]	Structure (SMILES)	ED30 (Rattus norvegicus [5]) [mg/kg]	ED50 (Rattus norvegicus [6]) [mg/kg]	ED50 (Rattus norvegicus [7]) [mg/kg]	inhibition in vivo at 3 mg/kg (Rattus norvegicus [8]) [%]
360	120	4900	> 100000	CS(=O)(=O)Nc1cc2c(cc1Sc1ncc(Cl)cc1Cl)C(=O)CC2	0.7	–	–	–
380	30	620	> 100000	Cc1csc(Sc2cc3c(cc2NS(C)(=O)=O)CCC3=O)n1	–	–	–	–
520	220	6100	> 100000	CS(=O)(=O)Nc1cc2c(cc1Sc1ncccc1Cl)C(=O)CC2	–	–	–	–
6900	43	350	> 100000	Cc1csc(Sc2cc3c(cc2NS(C)(=O)=O)COC3=O)n1	–	–	–	–
–	–	1600	> 100000	CS(=O)(=O)Nc1cc2c(cc1Sc1ccc(F)cc1F)C(=O)CC2	–	–	–	–
610	27	1300	> 100000	CS(=O)(=O)Nc1cc2c(cc1Sc1nccs1)C(=O)OC2	–	–	–	–
